For one test, the system named is ABCA1 gene. The test is described as follows: Quantitative analysis of ABCA1 gene regulation in THP-1 cells (real-time PCR). Format: cell-based, human. Conditions: for Emax: Gene regulation by LXR (Human), differentiated THP-1 cells, 18 hrs, LXR agonist reference at 1.0 uM as positive control, read-out: Agonism ABCA1; for pEC50: Homo sapiens, THP-1, 18 h, read-out: EC50 ABCA1. On the procedure:
III. Quantitative Analysis of ABCA1 Gene Regulation in THP-1 Cells. The compounds of formula (I) effect on the regulation of the ABCA1 gene was evaluated using the following procedure. Materials and Methods Cell culture: The THP-1 monocytic cell line (ATCC #TIB-202) was obtained from American Type Culture Collection (Manassas, Va.) and cultured in RPMI 1640 medium (Gibco, Carlsbad, Calif.) containing 10% FBS, 2 mM L-glutamine, and 55 uM beta-Mercaptoethanol (BME). […] Louis, Mo.) for three days to induce differentiation into adherent macrophages. Differentiated THP-1 cells were treated with test compounds or ligands dissolved in DMSO (Sigma, D-8779) in culture medium lacking phorbal ester. […] Dose response effects were measured in duplicate, in the range of 0.001 to 30 micromolar concentrations and treated cells were incubated for an additional 18 hrs prior to RNA isolation. Unstimulated cells treated with vehicle were included as negative controls on each plate. […] L., J. Med. Chem. (2000), 45:1963-1966.). Results of antagonist analysis are expressed as % antagonism and IC50 (in μM). RNA isolation and quantitation: Total cellular RNA was isolated from treated cells cultured in 96-well plates using PrepStation 6100 (Applied Biosystems, Foster City, Calif.), according to the manufacturer's recommendations. RNA was resuspended in ribonuclease-free water and stored at -70° C. prior to analysis. RNA concentrations were quantitated with RiboGreen test procedure, #R-11490 (Molecular Probes, Eugene, Oreg.). Gene expression analysis: Gene-specific mRNA quantitation was performed by real-time PCR with the Perkin Elmer Corp. chemistry on an ABI Prism 7700 Sequence detection system (Applied Biosystems, Foster City, Calif.) according to the manufacturer's instructions. Samples (50-100 ng) of total RNA were assayed in duplicate or triplicate in 50 ul reactions using one-step RT-PCR and the standard curve method to estimate specific mRNA concentrations. Sequences of gene-specific primer and probe sets were designed with Primer Express Software (Applied Biosystems, Foster City, Calif.). […] Relative levels of ABCA1 mRNA are normalized using GAPDH mRNA or 18S rRNA probe/primer sets purchased commercially (Applied Biosystems, Foster City, Calif.). Statistics: Mean, standard deviation and statistical significance of duplicate evaluations of RNA samples were assessed using ANOVA, one-way analysis of variance using SAS analysis. Reagents: -GAPDH Probe and Primers-Taqman GAPDH Control Reagents 402869 or 4310884E 18S Ribosomal RNA-Taqman 18S Control Reagents 4308329 […] Qiagen Quantitect probe RT-PCR 204443.
(In general: Real-time PCR tracks product formation cycle by cycle.)

The target of a further test is T1, human LXRβ (Homo sapiens, UniProt P55055).
T1 construct: biotin (biotinylated); made in house; host or cells: E. coli (crude extract)
T1 sequence (P55055 1-460): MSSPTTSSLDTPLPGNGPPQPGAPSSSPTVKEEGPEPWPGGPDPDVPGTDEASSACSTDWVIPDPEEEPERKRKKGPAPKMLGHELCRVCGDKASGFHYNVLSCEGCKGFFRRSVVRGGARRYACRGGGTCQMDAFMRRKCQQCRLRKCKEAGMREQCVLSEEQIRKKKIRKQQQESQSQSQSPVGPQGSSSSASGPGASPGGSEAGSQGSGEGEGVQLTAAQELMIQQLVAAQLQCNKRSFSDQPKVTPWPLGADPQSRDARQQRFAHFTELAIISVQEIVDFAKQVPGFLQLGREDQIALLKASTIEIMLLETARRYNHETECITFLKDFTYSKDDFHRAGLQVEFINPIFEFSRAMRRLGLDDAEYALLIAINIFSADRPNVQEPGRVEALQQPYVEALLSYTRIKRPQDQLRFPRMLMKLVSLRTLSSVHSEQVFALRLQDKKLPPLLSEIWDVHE
The test is described as follows: Ligand-binding test procedure for human LXRβ (3H T0901317 tracer, flash plates). Conditions: biotinylated hLXRβ from E. coli extract; tracer 3H T0901317. The method, boiled down: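 Biotinylated hLXRβ from E. coli extract was captured on streptavidin flash plates (Bmax ~4000 cpm) at 4 °C overnight. Test ligand dilutions were mixed with 5 nM [3H]T0901317 tracer solution and incubated on the plates overnight at 4 °C; bound radioactivity was counted after washing.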

Another test addresses T2, human LXRα (Homo sapiens, UniProt Q13133).
T2 construct: biotin (biotinylated); made in house; host or cells: E. coli (crude extract)
T2 sequence (Q13133 1-447): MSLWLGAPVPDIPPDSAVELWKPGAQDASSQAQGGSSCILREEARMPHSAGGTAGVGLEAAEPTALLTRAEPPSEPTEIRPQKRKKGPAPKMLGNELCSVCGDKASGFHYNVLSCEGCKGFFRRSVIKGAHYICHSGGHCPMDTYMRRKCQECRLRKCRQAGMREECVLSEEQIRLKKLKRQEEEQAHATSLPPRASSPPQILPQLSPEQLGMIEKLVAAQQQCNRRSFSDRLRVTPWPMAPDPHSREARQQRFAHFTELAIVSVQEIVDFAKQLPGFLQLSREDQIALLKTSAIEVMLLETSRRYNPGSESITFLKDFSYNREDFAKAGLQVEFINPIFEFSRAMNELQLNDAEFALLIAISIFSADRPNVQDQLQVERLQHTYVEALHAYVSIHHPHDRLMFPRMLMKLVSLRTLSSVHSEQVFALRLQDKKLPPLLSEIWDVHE
The test can be described thus: Ligand-binding test procedure for human LXRα (3H T0901317 tracer, flash plates). As to conditions: biotinylated hLXRα from E. coli extract; tracer 3H T0901317. The method, boiled down:
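Biotinylated hLXRα from E. coli extract (50 mM Tris) captured on streptavidin flash plates overnight at 4 °C. Compound dilution series mixed with 5 nM [3H]T0901317 (concentration before mixing), incubated overnight at 4 °C; wells aspirated, washed and remaining radioactivity counted.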

pEC50, pIC50: −log10 of the molar value. A value given as a limit tells only on which side of the number the result lay.

For `CCS(=O)(=O)c1cccc(Oc2cccc(-c3c(C)nc4c(C(F)(F)F)cccn34)c2)c1` [Example 10, 2-methyl-3-(3-(3-(ethylsulfonyl)phenoxy)phenyl)-8-(trifluoromethyl)imidazo[1,2-a]pyridine], in the test on ABCA1 gene, the Emax was 91% and the negative-log EC50 (pEC50) – broadly, the EC50 on a negative log10 scale, so that one unit is a factor of ten – is 6.26.

As for `CCc1nc2c(C(F)(F)F)cccn2c1-c1cccc(Oc2cccc(S(C)(=O)=O)c2)c1` [Example 17, 2-ethyl-3-(3-(3-(methylsulfonyl)phenoxy)phenyl)-8-(trifluoromethyl)imidazo[1,2-a]pyridine], in the test with ABCA1 gene, the Emax was determined as 91% and the pEC50 was 7.00.

On to `CNS(=O)(=O)c1cccc(Oc2cccc(-c3c(C(C)C)nc4c(Cl)cccn34)c2)c1` [Example 49, 3-[3-(8-chloro-2-isopropylimidazo[1,2-a]pyridin-3-yl)phenoxy]-N-methylbenzenesulfonamide], for which, in the test on ABCA1 gene, the Emax was 101% and the negative-log EC50 (pEC50) is 6.10.

On to `CC(C)c1nc2c(C(F)(F)F)cccn2c1-c1cccc(OCc2cccc(S(C)(=O)=O)c2)c1` [Example 52, 2-isopropyl-3-(3-{[3-(methylsulfonyl)benzyl]oxy}phenyl)-8-(trifluoromethyl)imidazo[1,2-a]pyridine], for which, in the test on ABCA1 gene, the Emax amounted to 86% and the pEC50 was 5.62.

With `CC(C)c1nc2c(Cl)cccn2c1-c1cccc(Oc2cccc(S(C)(=O)=O)c2)c1` [Example 66, 8-chloro-2-isopropyl-3-{3-[3-(methylsulfonyl)phenoxy]phenyl}imidazo[1,2-a]pyridine], in the test with ABCA1 gene, the Emax is 74% and the pEC50 is 6.20.

On to `CC(C)c1nc2c(C#N)cccn2c1-c1cccc(Oc2cccc(S(C)(=O)=O)c2)c1` [Example 72, 2-isopropyl-3-{3-[3-(methylsulfonyl)phenoxy]phenyl}imidazo[1,2-a]pyridine-8-carbonitrile], for which, in the test with ABCA1 gene, the Emax was found to be 79% and the pEC50 is 6.29.

For `CC(C)(C)c1nc2c(C(F)(F)F)cccn2c1-c1cccc(Oc2cccc(S(C)(=O)=O)c2)c1` [Example 75, 2-tert-butyl-3-{3-[3-(methylsulfonyl)phenoxy]phenyl}-8-(trifluoromethyl)imidazo[1,2-a]pyridine], in the test with ABCA1 gene, the Emax worked out at 91% and the pEC50 is 6.40.

Regarding `CC(C)c1nc2c(Cl)cccn2c1-c1cccc(Oc2cccc(S(N)(=O)=O)c2)c1` [Example 98, 3-[3-(8-chloro-2-isopropylimidazo[1,2-a]pyridin-3-yl)phenoxy]benzenesulfonamide], in the test on ABCA1 gene, the Emax came to 66% and the pEC50 was 5.86.

On to `CN(C)Cc1nc2c(C(F)(F)F)cccn2c1-c1cccc(Oc2cccc(S(C)(=O)=O)c2)c1` [Example 137, N,N-dimethyl-1-[3-{3-[3-(methylsulfonyl)phenoxy]phenyl}-8-(trifluoromethyl)imidazo[1,2-a]pyridin-2-yl]methanamine], for which the pIC50 on human LXRβ and at human LXRα was below 6.00 each time.

For the molecule `CCc1nc2c(C(F)(F)F)cccn2c1-c1cccc(Oc2cccc(S(=O)(=O)CCCC#N)c2)c1` [Example 140, 4-[(3-{3-[2-ethyl-8-(trifluoromethyl)imidazo[1,2-a]pyridin-3-yl]phenoxy}phenyl)sulfonyl]butanenitrile], the results for the negative logarithm of the IC50 (pIC50) at human LXRβ and on human LXRα were 7.16 and 6.04, respectively.

Turning to `CCc1nc2c(C(F)(F)F)cccn2c1-c1cccc(Oc2ccc(C#N)c(S(C)(=O)=O)c2)c1` [Example 141, 4-{3-[2-ethyl-8-(trifluoromethyl)imidazo[1,2-a]pyridin-3-yl]phenoxy}-2-(methylsulfonyl)benzonitrile], the pIC50 (as a rule, the negative decadic logarithm of the IC50, by convention in mol/L) at human LXRβ was 6.15; on human LXRα it was below 6.00.

Turning to `Cc1nc2c(C(F)(F)F)cccn2c1-c1cccc(Oc2ccc(C#N)c(S(C)(=O)=O)c2)c1` [Example 142, 2-(methylsulfonyl)-4-{3-[2-methyl-8-(trifluoromethyl)imidazo[1,2-a]pyridin-3-yl]phenoxy}benzonitrile], the pIC50 on human LXRβ and on human LXRα was below 6.00 in each case.

The values are drawn from US20110112135A1, “Imidazo [1,2-A] Pyridine Compounds” (priority 2007, published 2011).
